Measurements taken from patent publication US9636324B2, “Use of 15-benzylidence-14-deoxy-11, 12 -dehyroandrographolide derivative in manufacture of medicaments for protecting liver and anti-hepatitis C virus” (Zhengzhou University, priority 2012, dated 2017).

Columns and labels:
Assay type in all cases: in vivo, Kunming mice
[1] = system: mice with carbon tetrachloride induced liver damage; test: Carbon tetrachloride induced chemical liver damage model in mice
Method: Kunming mice of clean grade (male, weight 20±2 g), after adaptively fed for 3 days, are randomly divided into normal group, model group, bifendate positive control group (200 mg/kg), AD group (0.88 mmol/kg), low dosage group (0.66 mmol/kg) and high dosage group (0.88 mmol/kg) of compound A, B, C and D, with 8 mice in each group. Positive group and each test group are intragastrically given with respective suspension prepared with 0.5% CMC-Na, and normal group and model group are given with 0.5% CMC-Na. The drugs are given for 3 days, and 1 h after the last administration, all mice except those in the normal group are intraperitoneally injected with a single dose of 0.3% carbon tetrachloride in peanut oil (0.1 mL/10 g). After 16 h, the eyeball of the mice in each group is enucleated to collect blood, which is centrifuged at 3000 rpm for 15 min to separate serum. ALT and AST activities are tested respectively (Nanjing Jiancheng Bioengineering Institute). The left lobe of liver is taken to prepare 10% homogenate using physiological saline, MDA (Nanjing Jiancheng Bioengineering Institute) and PGE2 contents are determined. Experimental data are expressed as average±standard deviation (X±s), analyzed with SPSS 11.5 statistic software, with P<0.05 meaning there is a significant difference. Other agents, drugs and experimental methods are the same as in EXAMPLE 1. In experimental investigation of both models, the following grouping method is used: Kunming mice of clean grade (male, weight 20±2 g) are randomly divided into normal group, model group, bifendate group (200 mg/kg), AD group (0.88 mmol/kg), low dosage group (0.66 mmol/kg) and high dosage group (0.88 mmol/kg) of compound E, with 8 mice in each group. Other agents, drugs and experimental methods are the same as in EXAMPLE 1 and in EXAMPLE 4, respectively.

[2] = system: mice with ethanol induced liver damage; test: Ethanol induced liver damage model in mice
Method: Kunming mice of clean grade (male, weight 20±2 g), after adaptively fed for 3 days, are randomly divided into normal group, model group, bifendate positive control group (200 mg/kg), AD group (0.88 mmol/kg), low (0.44 mmol/kg), median (0.66 mmol/kg) and high (0.88 mmol/kg) dosage groups of compound A, and median (0.66 mmol/kg) and high (0.88 mmol/kg) dosage groups of compound B, with 8 mice in each group. Positive group and each test group are intragastrically given with respective suspension prepared with 0.5% CMC-Na, and normal group and model group are given with 0.5% CMC-Na. The drugs are given for 3 days, and 1 h after the last administration, all mice except those in the normal group are intragastrically administrated with a single dose of 50% EtOH ([…]). After 16 h, the eyeball of the mice in each group is enucleated to collect blood, which is centrifuged at 3000 rpm for 15 min to separate serum. ALT and AST activities are tested respectively (Nanjing Jiancheng Bioengineering Institute). The left lobe of liver is taken to prepare 10% homogenate using physiological saline, MDA (Nanjing Jiancheng Bioengineering Institute) content is determined. Experimental data are expressed as average±standard deviation (X±s), analyzed with SPSS 11.5 statistic software, with P<0.05 meaning there is a significant difference. Other agents, drugs and experimental methods are the same as in EXAMPLE 1.

[3] = system: mice with ConA induced liver damage; test: ConA induced immunological liver damage model in mice
Method: Kunming mice of clean grade (male, weight 20±2 g, supplied by the Laboratory Animal Center, Henan Province) are randomly divided into groups with 6 mice in each group. Bifendate (Xinchang Pharmaceutical Factory of Zhejiang Pharmaceutical Co., Ltd, 200 mg/kg) is used as positive control, andrographolide (AD) is provided by Furen Pharmaceutical Group Co., Ltd, and the test compounds are synthesized by the inventors with purities higher than 99.0%. Normal control group and model group are intragastrically given 0.5% sodium carboxymethylcellulose (CMC-Na), and test groups are given 0.5% CMC-Na suspensions with AD (0.88 mmol/kg), and low dosage (0.66 mmol/kg) and high dosage (0.88 mmol/kg) of compound A, B and C, respectively. The drugs are given for 3 days. One hour after the last administration, all mice except those in the normal control group are injected with a single dose of ConA (20 mg/kg) through the caudal vein. After 8 h, the eyeball is enucleated to collect blood, which is centrifuged at 3000 rpm for 15 min to separate serum. ALT and AST are tested according to the kit specification, respectively (Nanjing Jiancheng Bioengineering Institute). The left lobe of liver is taken to prepare 10% homogenate using physiological saline, MDA is determined according to the kit specification (Nanjing Jiancheng Bioengineering Institute). To 50 μL liver homogenate is added 2 mL of 0.5 mol/L KOH-methanol solution and kept at 50° C. water bath to isomerize for 20 minutes, then absorbance (A value) is measured at 278 nm, using the A value per mL of homogenate to represent the PGE2 content. Experimental data are expressed as average±standard deviation (X±s), analyzed with SPSS 11.5 statistic software, with P<0.05 meaning significant difference.
Kunming mice of clean grade (male, weight 20±2 g) are randomly divided into normal group, model group, bifendate (Zhejiang Wanbang Pharmaceutical Co., Ltd) positive control group (200 mg/kg), AD group (0.88 mmol/kg), low dosage group (0.66 mmol/kg) and high dosage (0.88 mmol/kg) group of compound D. ALT, AST, and MDA assay kits are purchased from Nanjing Jiancheng Bioengineering Institute. Other agents, drugs and experimental methods are the same as in EXAMPLE 1.
In experimental investigation of both models, the following grouping method is used: Kunming mice of clean grade (male, weight 20±2 g) are randomly divided into normal group, model group, bifendate group (200 mg/kg), AD group (0.88 mmol/kg), low dosage group (0.66 mmol/kg) and high dosage group (0.88 mmol/kg) of compound E, with 8 mice in each group. Other agents, drugs and experimental methods are the same as in EXAMPLE 1 and in EXAMPLE 4, respectively.

[4] = dosage groups not distinguished (0.66 and 0.88 mmol/kg), P<0.01
[5] = dosage groups not distinguished, P<0.01
[6] = high dosage 0.88 mmol/kg vs AD 0.88 mmol/kg, P<0.05
[7] = high dosage 0.88 mmol/kg, P<0.05
[8] = low dosage 0.66 mmol/kg vs AD 0.88 mmol/kg, P<0.05
[9] = high dosage 0.88 mmol/kg, P<0.01
[10] = low dosage (printed 0.66 mol/kg), P<0.01

C=C1CCC2C(C)(CO)C(O)CCC2(C)C1C=CC1=CC(=Cc2ccc(Cl)cc2)OC1=O (centres unmarked) [Compound A]
ALT activity in serum vs model group [1, 4]: notably suppress the increase
AST activity in serum vs model group [1, 4]: notably suppress the increase
MDA level in liver homogenate vs model group [1, 5]: effectively reduce
PGE2 level in liver homogenate vs model group [1, 5]: effectively reduce
magnitude of decrease in ALT activity compared to AD group [1, 6]: significantly better
magnitude of decrease in AST activity compared to AD group [1, 6]: significantly better
PGE2 content compared to AD group [1, 7]: notably lower
ability to reduce lipid peroxide level in liver homogenate compared to AD group [1, 7]: stronger ability to reduce the lipid peroxide level
magnitude of decrease in ALT activity compared to AD group [1, 8]: significantly better
magnitude of decrease in AST activity compared to AD group [1, 8]: significantly better
ability to reduce lipid peroxide level in liver homogenate compared to AD group ([1]; low dosage 0.66 mmol/kg, P<0.05): stronger ability to reduce the lipid peroxide level
protective effect against liver damage induced by carbon tetrachloride (summary) ([1]; mice, intragastric, 3 days): protective effect
ALT activity in serum vs model group [2, 5]: effectively suppress
AST activity in serum vs model group [2, 5]: effectively suppress
MDA content in liver homogenate vs model group [2, 5]: effectively reduce the MDA content
AST activity decreasing magnitude compared with AD group [2, 9]: notably larger
ALT activity decreasing magnitude compared with AD group ([2]; high dosage 0.88 mmol/kg, P<0.01 (A), P<0.05 (B)): notably larger
protective effect against liver damage induced by ethanol (summary) ([2]; mice, intragastric, 3 days): protective effect
liver histopathologic section (HE staining) ([3]; HE stain, 200x, FIG. 5): no observation of extravasated blood in sinus hepaticus, liver cells show slightly granular degeneration and vacuolar degeneration, and no spotted and focal necrosis region is observed
serum enzyme level relative to normal level ([3]; high dosage 0.88 mmol/kg): essentially decreased to normal level
enzyme (ALT, AST) lowering effect compared to AD group [3, 6]: better enzyme lowering effect
PGE2 content in liver homogenate vs model group [3, 9]: notably reduce PGE2 content
PGE2 content in liver homogenate vs model group ([3]; low dosage 0.66 mmol/kg, P<0.05 (A), P<0.01 (D)): notably reduce PGE2 content
MDA content in liver homogenate vs model group [3, 10]: more obvious effect
ability against liver lipid peroxidation compared with AD group [3, 10]: stronger resistant ability against liver lipid peroxidation
protective effect against liver damage induced by ConA (summary) ([3]; mice, intragastric, 3 days): notably protective effect
